Here are results for nine molecules from ChEMBL document CHEMBL5236544, “Furazans in Medicinal Chemistry” (J Med Chem, 2021).

SMILES strings stand for the structures. Where “and” joins values, the source holds several entries; their conditions need not be identical. Identical values can stand only once.

A short description of data set [1]: Inhibition of LPS induced TNF-alpha secretion in human THP-1 cells pretreated with LPS for 1 hr followed by compound addition and measured after 3 hrs by ELISA method. Format: functional, cell-based. (An ELISA detects its analyte on a solid surface through an enzyme-linked reagent.)
Data set [2] can be described thus: Inhibition of MAPK p38 (unknown origin). Also on record: species or system Homo sapiens.
Data set [3] is described as follows: Half life in mouse. The format is ADME, organism-based. The note with it: in vivo.
A short description of data set [4]: Stability in rat assessed as intrinsic clearance. Format: ADME. The note with it: CLH.
Data set [5] is described as follows: Oral bioavailability in rat at 3 mg/kg relative to control. Format: ADME, organism-based. The note with it: in vivo.
For data set [6], the system named is HeLa. Description: Antitumor activity against human HeLa cells xenografted in mouse model assessed as reduction in tumor growth at 75 mg/kg bid relative to control. Format: functional. Details: scale not given: the % may be the effect or the level left.
Data set [7] has as its system HeLa. Description: Antitumor activity against human HeLa cells xenografted in mouse assessed as reduction in tumor growth at 30 mg/kg bid relative to control. Format: functional. Also on record: scale not given: the % may be the effect or the level left. Background: In xenograft studies the graft and the host belong to different species.
Data set [8] relates to Canis familiaris. Kind of data set: Cardioprotective activity in dogs assessed as reduction in aortic pressure at 5.0 ug/kg, iv relative to control. Format: functional, Canis lupus familiaris. Also on record: scale not given: the % may be the effect or the level left.
Data set [9] relates to HeLa. Description: Antiproliferative activity against human HeLa cells assessed as cell growth inhibition. The format is functional, cell-based.
Data set [10] has as its target Indoleamine 2,3-dioxygenase 1 (Homo sapiens, UniProt P14902). Kind of data set: Inhibition of IDO1 (unknown origin).
For data set [11], the system named is HeLa. Description: Antiproliferative activity against human HeLa cells assessed as reduction in cell viability by MTT assay. Format: functional, cell-based. A general note: Formazan colour is commonly taken as a measure of viable cells.
Data set [12] relates to HCT-116. Description: Antiproliferative activity against human HCT-116 cells assessed as inhibition of cell proliferation by MTT assay. The format is functional, cell-based.
A short description of data set [13]: Antiproliferative activity against mouse Lewis lung carcinoma cell line cells assessed as inhibition of cell proliferation by MTT assay. Format: functional, cell-based.
The test system of data set [14] is HCT-116. Description: Antitumor activity against human HCT-116 cells xenografted in mouse model assessed as reduction in tumor growth at 100 mg/kg bid relative to control. The format is functional. Also on record: scale not given: the % may be the effect or the level left.
The target of data set [15] is Mitogen-activated protein kinase 14 (Homo sapiens) (UniProt Q16539). Kind of data set: Inhibition of recombinant p38alpha MAPK (unknown origin) at 10 uM preincubated for 10 mins followed by substrate addition and measured after 40 mins in the presence of ATP by ADP-Glo assay. As to conditions: time 60.0 min.
For data set [16], the target named is T1, MAP kinase p38 (Homo sapiens) (UniProt O15264+Q15759+Q16539+P53778). Kind of data set: Inhibition of p38 (unknown origin) at 10 uM relative to control. Format: protein assay.
Data set [17] has as its target T1, MAP kinase p38 (Homo sapiens). Description: Inhibition of p38 (unknown origin) at 1.0 uM relative to control. Format: protein assay.
In data set [18] the target is T2, c-Jun N-terminal kinase, JNK (Homo sapiens) (UniProt P45983+P53779+P45984). Description: Inhibition of JNK (unknown origin) at 10 uM relative to control. Format: protein assay.
In data set [19] the target is T2, c-Jun N-terminal kinase, JNK (Homo sapiens). Kind of data set: Inhibition of JNK (unknown origin) at 1.0 uM relative to control. Format: protein assay.
Data set [20] deals with THP-1. Description: Antinflammatory activity in human THP-1 cells assessed as reduction of TNF-alpha at 10 uM relative to control. Also on record: scale not given: the % may be the effect or the level left. The format is functional.
The subject of data set [21] is THP-1. Description: Antinflammatory activity in human THP-1 cells assessed as reduction of TNF-alpha at 1.0 uM relative to control. The format is functional.
The nature of data set [22]: Neuroprotective activity against neurons (unknown origin) assessed as rescue by measuring cytokine level at 10 uM relative to control. Format: functional, Homo sapiens, Neuron.
Data set [23] can be described thus: Neuroprotective activity against neurons (unknown origin) assessed as rescue by measuring cytokine level at 1.0 uM relative to control. The format is functional, Homo sapiens, Neuron.
The nature of data set [24]: Drug concentration in mouse plasma at 10 mg/kg, iv administered once daily measured after 2 hrs. The format is ADME, organism-based.
Data set [25] is described as follows: Drug concentration in mouse brain at 10 mg/kg, iv administered once daily measured after 2 hrs. The format is ADME, organism-based. The note with it: read-out: Ct.
In data set [26] the target is Tumor necrosis factor (Homo sapiens) (UniProt P01375). Kind of data set: Inhibition of TNF-alpha secretion in human THP-1 cells. Details: concentration or dose not given beside the values. The note with it: concentration not given here.
For data set [27], the system named is HCT-116. Description: Antiproliferative activity against human HCT-116 cells assessed as inhibition of cell proliferation incubated for 24 hrs by MTT assay. The format is functional, cell-based. The note with it: HCT-116, 24 h.
The test system of data set [28] is HL-60. Kind of data set: Antiproliferative activity against human HL-60 cells assessed as inhibition of cell proliferation incubated for 24 hrs by MTT assay. The note with it: HL-60, 24 h. The format is functional, cell-based.
Data set [29] deals with A549. Description: Antiproliferative activity against human A549 cells assessed as inhibition of cell proliferation incubated for 24 hrs by MTT assay. Format: functional, cell-based. As to conditions: A549, 24 h.
For data set [30], the system named is SK-OV-3. Kind of data set: Antiproliferative activity against human SK-OV-3 cells assessed as inhibition of cell proliferation by MTT assay. Format: functional, cell-based.
For data set [31], the system named is SK-OV-3. Description: Antitumor activity against human SK-OV-3 cells xenografted in mouse model assessed as reduction in tumor growth at 100 mg/kg bid relative to control. Also on record: scale not given: the % may be the effect or the level left. The format is functional.
Data set [32] is described as follows: Half life in human liver microsomes. Format: ADME.
Data set [33] concerns Rattus norvegicus. Description: Antihypertensive activity in spontaneously hypertensive rat model assessed as change in blood pressure at 1 mg/kg, po measured after 3 hrs. Format: functional.
Data set [34] relates to Rattus norvegicus. Description: Antihypertensive activity in spontaneously hypertensive rat model assessed as change in heart rate at 1 umol/kg, po measured after 3 hrs. The format is functional.
Data set [35] concerns Rattus norvegicus. Description: Antihypertensive activity in spontaneously hypertensive rat model assessed as change in blood pressure at 1 mg/kg, po measured after 6 hrs. Format: functional.
The subject of data set [36] is Rattus norvegicus. Description: Antihypertensive activity in spontaneously hypertensive rat model assessed as change in heart rate at 10 mg/Kg, po measured after 6 hrs. Format: functional.
The subject of data set [37] is Rattus norvegicus. Description: Antihypertensive activity in spontaneously hypertensive rat model assessed as change in blood pressure at 1 mg/kg, po measured after 10 hrs. The format is functional.
In data set [38] the test system is Rattus norvegicus. Description: Antihypertensive activity in spontaneously hypertensive rat model assessed as change in heart rate at 1 mmol/Kg, po measured after 10 hrs. The format is functional.
The species named for data set [39] is Rattus norvegicus. Kind of data set: Antihypertensive activity in spontaneously hypertensive rat model assessed as reduction in pulmonary arterial pressure. The format is functional.
Data set [40] is filed under the species Rattus norvegicus. Kind of data set: Antihypertensive activity in spontaneously hypertensive rat model assessed as reduction in systemic arterial pressure. Format: functional.

Tumor necrosis factor (Homo sapiens), sequence (P01375 whole entry, looked up): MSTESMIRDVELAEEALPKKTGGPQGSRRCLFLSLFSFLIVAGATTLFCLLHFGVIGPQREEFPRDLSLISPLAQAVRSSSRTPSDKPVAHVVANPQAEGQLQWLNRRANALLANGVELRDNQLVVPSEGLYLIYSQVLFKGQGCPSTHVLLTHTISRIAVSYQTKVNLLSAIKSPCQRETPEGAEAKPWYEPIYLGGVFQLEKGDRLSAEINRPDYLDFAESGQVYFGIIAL
Mitogen-activated protein kinase 14 (Homo sapiens), sequence (Q16539 whole entry): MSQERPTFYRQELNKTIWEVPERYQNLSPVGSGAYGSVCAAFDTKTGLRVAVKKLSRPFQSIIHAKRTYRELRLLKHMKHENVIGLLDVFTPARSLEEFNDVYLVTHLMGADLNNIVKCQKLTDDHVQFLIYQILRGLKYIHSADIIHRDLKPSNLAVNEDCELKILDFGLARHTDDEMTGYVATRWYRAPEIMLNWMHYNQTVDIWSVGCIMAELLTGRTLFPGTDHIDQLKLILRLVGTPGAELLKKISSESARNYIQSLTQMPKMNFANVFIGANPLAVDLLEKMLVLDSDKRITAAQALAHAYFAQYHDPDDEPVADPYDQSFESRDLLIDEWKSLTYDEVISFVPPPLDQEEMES
Indoleamine 2,3-dioxygenase 1, sequence (P14902 whole entry): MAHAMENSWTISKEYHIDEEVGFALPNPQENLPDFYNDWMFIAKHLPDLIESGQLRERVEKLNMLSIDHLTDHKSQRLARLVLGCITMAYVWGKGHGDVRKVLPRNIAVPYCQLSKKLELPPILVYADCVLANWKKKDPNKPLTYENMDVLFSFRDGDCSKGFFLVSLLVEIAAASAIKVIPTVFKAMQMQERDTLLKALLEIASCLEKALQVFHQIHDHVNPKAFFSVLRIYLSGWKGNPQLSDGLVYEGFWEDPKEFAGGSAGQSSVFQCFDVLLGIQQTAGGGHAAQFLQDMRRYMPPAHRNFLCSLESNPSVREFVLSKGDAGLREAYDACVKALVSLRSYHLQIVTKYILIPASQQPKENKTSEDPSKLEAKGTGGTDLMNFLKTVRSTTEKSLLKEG

In the case of `Cc1ccc(Cl)cc1Nc1ccc([N+](=O)[O-])c2nonc12`, the EC50 in data set [1] amounted to 1800 nM. In addition, in data set [2], the half-maximal inhibitory concentration (IC50) came to 6300 nM.

As to `NS(=O)(=O)NCCNc1nonc1/C(=N/O)Nc1ccc(F)c(Br)c1` [EPACADOSTAT], the half-life in data set [3] was less than 0.5 h. The intrinsic clearance (CLint scaled) in data set [4] was determined as 11.7 mL/min/kg. In data set [5], this molecule came in with a bioavailability of 11%. For the same molecule, the Activity in [6] was 50%; in data set [7], 56%.

Take `CC1(C)Oc2ccc(C#N)cc2[C@@H](N2CCCC2=O)[C@@H]1O` [LEVCROMAKALIM]: the Activity in data set [8] is given as -11.2%.

`Cc1ccc(/C=N/NC(=O)c2nnn(-c3nonc3N)c2-c2ccc([N+](=O)[O-])cc2)cc1`: the concentration for a half-maximal effect (EC50) in [9] worked out at 15100 nM.

Take `O=C(NCCNc1nonc1/C(=N/O)Nc1ccc(F)c(Br)c1)c1cccc(N(CCCl)CCCl)c1`: in data set [10], 130 nM corresponded to half-maximal inhibition (IC50). Moreover, the results for the EC50 in data set [11], in data set [12] and in data set [13] were 270 nM, 5100 nM and 18000 nM, respectively. Further, the Activity in data set [14] is 58% and 48%.

Consider `CCCOc1ccc(Nc2nc3nonc3nc2N2CCC(Oc3ccc(Cl)cc3)CC2)cc1`, for which the inhibition in data set [15] worked out at 99%; in data set [16], 99%; in data set [17], 37%; in data set [18], 98%; in data set [19] it was 49%; in [26], 74%. Besides, the Activity in [20] is listed as 74%; in data set [22], 51%; in data set [23], 33%. In data set [21], the inhibition at 1 µM came out at 51%. The figures for the concentration at 2 h in data set [24] and in data set [25] were 430 nM and 800 nM, respectively.

Consider `Nc1nonc1C(=O)N/N=C1\c2ccccc2-c2nc3nonc3nc21`, for which the half-maximal effective concentration (EC50) was determined as 1600 nM in data set [27], 1200 nM in data set [28] and 800 nM in [29].

Consider `NS(=O)(=O)CC(=O)NCCSc1nonc1/C(=N/O)Nc1cccc(Cl)c1`, for which the EC50 in data set [30] was found to be 10 nM. Further, the Activity in data set [31] is recorded as 50%. This molecule showed a half-life in [32] of more than 3 h.

Take `CCn1c(-c2nonc2N)nc2cncc(C(=O)N3CC[C@H](N)C3)c21`: the Activity in data set [33] is -20 mmHg; in [34] it was 20 bpm; in data set [35], -20 mmHg; in data set [36], -40 bpm; in [37] it was -5 mmHg; in data set [38], -25 bpm. The Activity in data set [39] is on record as -13 mmHg; in [40], -40 mmHg.

In general, EC50 refers to the concentration at which the effect is half-maximal. In general, IC50 refers to the concentration that inhibits the measured activity by half. Usually half-life stands for the time needed for the level to fall by half in the phase considered. One may read the CLint scaled as a measure of how fast metabolising enzymes remove a compound, apart from limits set by blood flow. Broadly, the bioavailability is the share of a dose that reaches the circulation, judged against a reference dose that is usually intravenous. Broadly, the inhibition is the share of the control response that was lost under treatment.
